Experimental data reported in US20240174618A1, “SUBSTITUTED (2-HETEROARYLOXYPHENYL)SULFONATES, SALTS THEREOF AND THEIR USE AS HERBICIDAL AGENTS” (Bayer Aktiengesellschaft, priority 2021, published 2024).

Key:
Format in all cases: in vivo
[1] = system: Abutilon theophrasti (ABUTH); assay: A. Herbicidal pre-emergence efficacy, ABUTH; conditions: scored visually after about 3 weeks vs untreated controls
Procedure, shortened: (§1)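 Pre-emergence soil-surface spray in sandy loam pots, WP/EC in water plus 0.5% additive, 600 L/ha. Visual % damage rating after about 3 weeks in greenhouse vs. untreated; 0% = control-like, 100% = dead plants. Rates up to 1280 g/ha.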

[2] = system: Digitaria sanguinalis (DIGSA); assay: A. Herbicidal pre-emergence efficacy, DIGSA; conditions: scored visually after about 3 weeks vs untreated controls
Procedure, shortened: as §1

[3] = system: Echinochloa crus-galli (ECHCG); assay: A. Herbicidal pre-emergence efficacy, ECHCG; conditions: scored visually after about 3 weeks vs untreated controls
Procedure, shortened: as §1

Kochia scoparia (KCHSC) [4] = assay: A. Herbicidal pre-emergence efficacy, KCHSC; conditions: pre-emergence
Procedure, shortened: as §1

Lolium rigidum (LOLRI) = assay: A. Herbicidal pre-emergence efficacy, LOLRI
Source text: (§2) Seeds of mono- and dicotyledonous weed plants were placed in plastic pots in sandy loam soil (doubly sown with one species each of mono- or dicotyledonous weed plants per pot) and covered with soil. The compounds of the invention, formulated in the form of wettable powders (WP) or as emulsion concentrates (EC), were then applied onto the surface of the covering soil as aqueous suspension or emulsion with addition of 0.5% additive at a water application rate of 600 liters per hectare (converted). After the treatment, the pots were placed in a greenhouse and kept under good growth conditions for the test plants. After about 3 weeks, the efficacy of the preparations was scored visually in comparison with untreated controls as percentages.
(§3) For example, • 100% efficacy=plants have died, • 0% efficacy=like untreated control plants.
(§4) Tables A1a to A12c below show the effects of selected compounds of the general formula (I) according to table 1 on various harmful plants at an application rate corresponding to 1280 g/ha or less, which were obtained by the experimental procedure mentioned above.

[5] = system: Matricaria inodora (MATIN); assay: A. Herbicidal pre-emergence efficacy, MATIN; conditions: pre-emergence, dosage 1280 g/ha
Source text: as §2, §3, §4

Poa annua (POAAN) [6] = assay: A. Herbicidal pre-emergence efficacy, POAAN
Procedure, shortened: as §1

Setaria viridis (SETVI) = assay: A. Herbicidal pre-emergence efficacy, SETVI
Procedure, shortened: as §1

Stellaria media (STEME) [7] = assay: A. Herbicidal pre-emergence efficacy, STEME
Procedure, shortened: as §1

Veronica persica (VERPE) [8] = assay: A. Herbicidal pre-emergence efficacy, VERPE
Procedure, shortened: as §1

[9] = system: Amaranthus retroflexus (AMARE); assay: A. Herbicidal pre-emergence efficacy, AMARE
Procedure, shortened: as §1

[10] = system: Abutilon theophrasti (ABUTH); assay: B. Herbicidal post-emergence efficacy, ABUTH; conditions: rated visually after about 3 weeks
Procedure, shortened: (§5)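 Weeds grown in sandy loam in greenhouse pots, sprayed at one-leaf stage (2–3 weeks after sowing) with WP or EC formulations as aqueous suspension/emulsion plus 0.5% additive at 600 L/ha water, rates up to 1280 g/ha. Visual efficacy rated about 3 weeks later versus untreated controls (0% = like control, 100% = dead).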

[11] = system: Digitaria sanguinalis (DIGSA); assay: B. Herbicidal post-emergence efficacy, DIGSA; conditions: 1280 g/ha, rated visually after about 3 weeks
Procedure: Seeds of mono- and dicotyledonous weed plants were placed in plastic pots in sandy loam soil (doubly sown with in each case one species of mono- or dicotyledonous weed plants per pot), covered with soil and cultivated in a greenhouse under controlled growth conditions. 2 to 3 weeks after sowing, the test plants were treated at the one-leaf stage. The compounds of the invention, formulated in the form of wettable powders (WP) or as emulsion concentrates (EC), were applied onto the green parts of the plants as aqueous suspension or emulsion with addition of 0.5% additive at a water application rate of 600 liters per hectare (converted). After the test plants had been kept in the greenhouse under optimum growth conditions for about 3 weeks, the activity of the preparations was rated visually in comparison to untreated controls.
For example, • 100% efficacy=plants have died, • 0% efficacy=like untreated control plants
Tables B1a to B12c below show the effects of selected inventive compounds of the general formula (I) according to table 1 on various harmful plants at an application rate corresponding to 1280 g/ha or less, which were obtained by the experimental procedure mentioned above.

[12] = system: Echinochloa crus-galli (ECHCG); assay: B. Herbicidal post-emergence efficacy, ECHCG; conditions: rated visually after about 3 weeks
Procedure, shortened: as §5

Kochia scoparia (KCHSC) [13] = assay: B. Herbicidal post-emergence efficacy, KCHSC; conditions: for Post-emergence efficacy against KCHSC in %: rated visually after about 3 weeks
Procedure, shortened: as §5

Poa annua (POAAN) [14] = assay: B. Herbicidal post-emergence efficacy, POAAN
Procedure, shortened: as §5

Stellaria media (STEME) [15] = assay: B. Herbicidal post-emergence efficacy, STEME
Procedure, shortened: as §5

Veronica persica (VERPE) [16] = assay: B. Herbicidal post-emergence efficacy, VERPE
Procedure, shortened: as §5

[17] = system: Amaranthus retroflexus (AMARE); assay: B. Herbicidal post-emergence efficacy, AMARE
Procedure, shortened: as §5

For O=S(=O)(CCCC(F)(F)F)Oc1c(Br)cccc1Oc1ncc(Cl)cn1 [Example I-30], the “Pre-emergence efficacy against ABUTH” value ([1]; 320 g/ha) was 90%, the “Pre-emergence efficacy against ABUTH” value ([1]; 1280 g/ha) was 100% and the “Pre-emergence efficacy against DIGSA” value ([2]; 320 g/ha) was 100%. The “Pre-emergence efficacy against DIGSA” value ([2]; 1280 g/ha) was 100%, the “Pre-emergence efficacy against ECHCG” value ([3]; 320 g/ha) was 100% and the “Pre-emergence efficacy against ECHCG” value ([3]; 1280 g/ha) was 100%. The “Pre-emergence efficacy against KCHSC” value (Kochia scoparia (KCHSC) [4]; dosage 320 g/ha) was 100%, the “Pre-emergence efficacy against KCHSC” value (Kochia scoparia (KCHSC) [4]; dosage 1280 g/ha) was 100% and the “Pre-emergence efficacy against LOLRI” value (Lolium rigidum (LOLRI); dosage 320 g/ha) was 90%. The “Pre-emergence efficacy against LOLRI” value (Lolium rigidum (LOLRI); dosage 1280 g/ha) was 100%, the “Pre-emergence efficacy against MATIN” value [5] was 100% and the “Pre-emergence efficacy against POAAN” value (Poa annua (POAAN) [6]; dosage 80 g/ha) was 90%. The “Pre-emergence efficacy against POAAN” value (Poa annua (POAAN) [6]; dosage 320 g/ha) was 100%, the “Pre-emergence efficacy against POAAN” value (Poa annua (POAAN) [6]; dosage 1280 g/ha) was 100% and the “Pre-emergence efficacy against SETVI” value (Setaria viridis (SETVI); dosage 80 g/ha) was 90%. For the same compound, the “Pre-emergence efficacy against SETVI” value (Setaria viridis (SETVI); dosage 320 g/ha) was 100%, the “Pre-emergence efficacy against SETVI” value (Setaria viridis (SETVI); dosage 1280 g/ha) was 100% and the “Pre-emergence efficacy against STEME” value (Stellaria media (STEME) [7]; dosage 80 g/ha) was 100%. The “Pre-emergence efficacy against STEME” value (Stellaria media (STEME) [7]; dosage 320 g/ha) was 100%, the “Pre-emergence efficacy against STEME” value (Stellaria media (STEME) [7]; dosage 1280 g/ha) was 100% and the “Pre-emergence efficacy against VERPE in %” value (Veronica persica (VERPE) [8]; 320 g/ha) was 100%. For the same compound, the “Pre-emergence efficacy against VERPE in %” value (Veronica persica (VERPE) [8]; 1280 g/ha) was 100%, the “Pre-emergence efficacy against AMARE in %” value ([9]; 80 g/ha) was 100% and the “Pre-emergence efficacy against AMARE in %” value ([9]; 320 g/ha) was 100%. For the same compound, the “Pre-emergence efficacy against AMARE in %” value ([9]; 1280 g/ha) was 100%, the “Post-emergence efficacy against ABUTH in %” value ([10]; 80 g/ha) was 90% and the “Post-emergence efficacy against ABUTH in %” value ([10]; 320 g/ha) was 90%. The “Post-emergence efficacy against ABUTH in %” value ([10]; 1280 g/ha) was 100%, the “Post-emergence efficacy against DIGSA in %” value [11] was 90% and the “Post-emergence efficacy against ECHCG in %” value ([12]; 320 g/ha) was 90%. The “Post-emergence efficacy against ECHCG in %” value ([12]; 1280 g/ha) was 90%, the “Post-emergence efficacy against KCHSC in %” value (Kochia scoparia (KCHSC) [13]; 80 g/ha) was 100% and the “Post-emergence efficacy against KCHSC in %” value (Kochia scoparia (KCHSC) [13]; 320 g/ha) was 100%. The “Post-emergence efficacy against KCHSC” value (Kochia scoparia (KCHSC) [13]; 1280 g/ha) was 100%, the “Post-emergence efficacy against POAAN” value (Poa annua (POAAN) [14]; 320 g/ha) was 90% and the “Post-emergence efficacy against POAAN” value (Poa annua (POAAN) [14]; 1280 g/ha) was 100%. For the same compound, the “Post-emergence efficacy against STEME” value (Stellaria media (STEME) [15]; 80 g/ha) was 100%, the “Post-emergence efficacy against STEME” value (Stellaria media (STEME) [15]; 320 g/ha) was 100% and the “Post-emergence efficacy against STEME” value (Stellaria media (STEME) [15]; 1280 g/ha) was 100%. The “Post-emergence efficacy against VERPE” value (Veronica persica (VERPE) [16]; 80 g/ha) was 90%, the “Post-emergence efficacy against VERPE” value (Veronica persica (VERPE) [16]; 320 g/ha) was 100% and the “Post-emergence efficacy against VERPE” value (Veronica persica (VERPE) [16]; 1280 g/ha) was 100%. The “Post-emergence efficacy against AMARE” value ([17]; 80 g/ha) was 100%, the “Post-emergence efficacy against AMARE” value ([17]; 320 g/ha) was 100% and the “Post-emergence efficacy against AMARE” value ([17]; 1280 g/ha) was 100%.
